Data from ChEMBL document CHEMBL1201862, “PubChem BioAssay data set” (2004).
The source made the active and inactive calls.

What was measured:
[1] = blockers of CRF-binding protein–CRF-R2 complex – cell-based, uHTS hits, 384-well, dose response (AID 651639); type: functional, Homo sapiens; details: read-out: IC50_Mean
Genome polyprotein = Genome polyprotein (dengue virus type 2, UniProt P29990); experiment: flavivirus cap methylation enzyme inhibition – biochemical, confirmation dose response, primary screen (AID 588689); type: functional
Vero = experiment: viability of Vero cells under compound – cytotoxicity control for flavivirus capping enzyme inhibitors (AID 588742); type: functional; details: Chlorocebus sabaeus
[2] = Luminescence Cell-Based Dose Confirmation HTS to Identify Inhibitors of Polyadenylation.; type: functional
[3] = target: T1, Corticotropin-releasing factor receptor 2/Corticotropin-releasing factor-binding protein (Homo sapiens, UniProt P24387+Q13324); experiment: activators of CRF receptor 2 with binding protein – uHTS hits, confirmation (AID 602473); type: functional; details: read-out: EC50_Mean
T1 sequence (Q13324 whole entry): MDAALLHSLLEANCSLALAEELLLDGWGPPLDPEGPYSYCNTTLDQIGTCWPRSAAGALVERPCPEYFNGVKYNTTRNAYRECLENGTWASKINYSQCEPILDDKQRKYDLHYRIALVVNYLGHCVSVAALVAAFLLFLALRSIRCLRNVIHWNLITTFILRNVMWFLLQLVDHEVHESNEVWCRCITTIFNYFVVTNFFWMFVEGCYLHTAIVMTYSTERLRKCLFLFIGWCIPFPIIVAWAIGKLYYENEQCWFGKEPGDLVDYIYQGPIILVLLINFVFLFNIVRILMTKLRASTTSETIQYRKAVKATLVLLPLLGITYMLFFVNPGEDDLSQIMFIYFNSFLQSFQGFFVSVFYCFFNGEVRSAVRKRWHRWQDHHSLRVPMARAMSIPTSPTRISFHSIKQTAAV
T1 sequence (P24387 whole entry): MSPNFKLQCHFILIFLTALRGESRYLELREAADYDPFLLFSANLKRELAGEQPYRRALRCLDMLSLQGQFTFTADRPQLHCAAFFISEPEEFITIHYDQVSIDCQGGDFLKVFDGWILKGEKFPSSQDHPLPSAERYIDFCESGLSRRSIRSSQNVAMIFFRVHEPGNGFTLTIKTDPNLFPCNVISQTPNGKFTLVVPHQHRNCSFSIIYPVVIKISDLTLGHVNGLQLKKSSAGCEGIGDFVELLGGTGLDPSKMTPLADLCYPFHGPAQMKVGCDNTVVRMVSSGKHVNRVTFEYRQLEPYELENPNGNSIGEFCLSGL

[4] = target: T1, Corticotropin-releasing factor receptor 2/Corticotropin-releasing factor-binding protein; experiment: Dose Response confirmation of uHTS hits for small molecule antagonists of the CRF-binding protein and CRF-R2 receptor complex.; type: functional; details: read-out: IC50_Mean
[5] = target: Glycogen synthase kinase-3 beta (Homo sapiens, UniProt P49841); experiment: Inhibition of Human GSK-3 beta Activity Measured in Biochemical System Using Microfluidics - 2063-05_Inhibitor_Dose_DryPowder_Activity_Set2. [Related pubchem assays (depositor defined):AID2709]
[6] = target: Glycogen synthase kinase-3 alpha (Homo sapiens, UniProt P49840); experiment: Inhibition of Human GSK-3 alpha Activity Measured in Biochemical System Using Microfluidics - 2063-06_Inhibitor_Dose_DryPowder_Activity_Set2. [Related pubchem assays (depositor defined):AID2709]
Glycogen synthase kinase-3 alpha, sequence (P49840 whole entry): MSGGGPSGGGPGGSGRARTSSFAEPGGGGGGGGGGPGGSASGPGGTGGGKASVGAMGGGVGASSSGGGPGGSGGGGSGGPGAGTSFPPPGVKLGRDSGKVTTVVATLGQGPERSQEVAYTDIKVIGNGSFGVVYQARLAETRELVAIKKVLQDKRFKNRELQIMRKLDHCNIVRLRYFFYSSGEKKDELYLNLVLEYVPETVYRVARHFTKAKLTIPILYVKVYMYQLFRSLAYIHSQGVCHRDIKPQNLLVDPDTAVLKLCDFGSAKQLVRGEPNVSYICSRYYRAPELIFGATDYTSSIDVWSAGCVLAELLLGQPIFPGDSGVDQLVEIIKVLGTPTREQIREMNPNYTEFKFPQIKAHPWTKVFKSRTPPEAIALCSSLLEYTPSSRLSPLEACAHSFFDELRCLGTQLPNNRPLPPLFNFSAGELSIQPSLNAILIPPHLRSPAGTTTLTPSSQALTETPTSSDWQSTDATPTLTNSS

Glycogen synthase kinase-3 beta, sequence (P49841 whole entry): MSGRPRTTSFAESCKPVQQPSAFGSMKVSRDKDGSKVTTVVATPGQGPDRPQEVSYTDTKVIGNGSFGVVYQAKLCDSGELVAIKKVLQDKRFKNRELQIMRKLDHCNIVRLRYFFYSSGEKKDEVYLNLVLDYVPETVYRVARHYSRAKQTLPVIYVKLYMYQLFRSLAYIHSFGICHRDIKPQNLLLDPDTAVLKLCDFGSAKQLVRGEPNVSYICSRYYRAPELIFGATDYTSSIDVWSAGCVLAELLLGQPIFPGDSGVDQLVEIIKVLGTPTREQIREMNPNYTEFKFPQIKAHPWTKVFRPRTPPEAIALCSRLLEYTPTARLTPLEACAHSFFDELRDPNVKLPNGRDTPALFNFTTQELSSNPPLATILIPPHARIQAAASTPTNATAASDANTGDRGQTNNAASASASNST
Genome polyprotein, sequence (P29990 2492-3391 limits assumed): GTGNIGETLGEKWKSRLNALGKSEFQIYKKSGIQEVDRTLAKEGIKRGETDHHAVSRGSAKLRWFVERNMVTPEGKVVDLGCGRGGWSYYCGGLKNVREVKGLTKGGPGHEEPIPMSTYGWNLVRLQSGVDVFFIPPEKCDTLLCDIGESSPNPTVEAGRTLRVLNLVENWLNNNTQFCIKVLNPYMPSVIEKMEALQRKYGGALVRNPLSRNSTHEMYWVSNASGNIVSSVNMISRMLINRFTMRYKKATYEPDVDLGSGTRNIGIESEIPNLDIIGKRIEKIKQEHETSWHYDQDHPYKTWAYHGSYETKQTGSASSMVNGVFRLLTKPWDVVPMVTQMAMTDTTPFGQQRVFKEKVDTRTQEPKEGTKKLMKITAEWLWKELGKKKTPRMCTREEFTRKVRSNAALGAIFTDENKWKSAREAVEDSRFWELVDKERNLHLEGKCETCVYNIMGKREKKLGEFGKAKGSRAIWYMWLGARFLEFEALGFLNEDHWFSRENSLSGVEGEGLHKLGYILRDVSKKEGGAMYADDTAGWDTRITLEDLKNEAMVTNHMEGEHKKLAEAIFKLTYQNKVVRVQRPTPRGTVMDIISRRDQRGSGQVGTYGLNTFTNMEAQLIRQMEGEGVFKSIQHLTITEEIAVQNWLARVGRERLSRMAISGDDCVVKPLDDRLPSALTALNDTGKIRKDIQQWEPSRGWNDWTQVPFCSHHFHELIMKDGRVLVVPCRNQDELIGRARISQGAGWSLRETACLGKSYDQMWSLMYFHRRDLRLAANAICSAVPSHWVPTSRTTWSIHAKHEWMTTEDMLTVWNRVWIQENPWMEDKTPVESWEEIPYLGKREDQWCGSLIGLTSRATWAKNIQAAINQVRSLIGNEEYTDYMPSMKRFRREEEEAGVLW

| SMILES | IC50 [1] | IC50 (Genome polyprotein) | CC50 (Vero) | EC50 [2] | EC50 [3] | IC50 [4] | AC50 [5] | AC50 [6] |
| --- | --- | --- | --- | --- | --- | --- | --- | --- |
| O=C1S/C(=C\c2ccc(O)c([N+](=O)[O-])c2)C(=O)N1c1ccccc1Cl | > 20 µM (inactive) | 40.6 µM (active) | > 40 µM (active) | > 120 µM (not active) | > 53 µM (inactive) | 24.4 µM (active) | – | – |
| O=C(Nc1ccsc1C(=O)NC1CCCCC1)c1ccc(F)cc1 | – | – | – | – | – | – | 6.28 µM (active) | 24.9 µM (active) |
